Data as given in patent US20260207628A1, “25-HYDROXY-CHOLEST-5-EN-3-SULFATE CHOLINE, FORMULATIONS THEREOF AND METHODS FOR PREPARING, AND USES OF SAME” (Durect Corporation, priority 2022, published 2026).
Where two headings read alike, the source gives them in different places.

Tests used:
[1] = by compressibility index and Hausner ratio
Protocol: Although there are some variations in the method of determining the compressibility index and Hausner ratio, the basic procedure is to measure the unsettled apparent volume, VO, and the final tapped volume, Vf, of the powder after tapping the material until no further volume changes occur. The compressibility index and the Hausner ratio are calculated as follows: […]
Powder was carefully poured into a 5 mL glass graduated cylinder (to contain) until it was close to or at 5.0 mL. This initial volume was recorded as Vo. The graduated cylinder was tapped on a hard surface for 200 times and the volume was recorded. The cylinder was tapped 100 times more, and the final volume Vf was recorded.

[2] = by angle of repose
Protocol: Angle of repose is measured as follows. Powder is poured from a funnel onto a flat surface until a cone of powder is created. The angle of repose is calculated according to the following equation:
[formula] • Where: • h: height of the cone (mm) • r: radius of the cone (mm)
The height of the cone was estimated with calipers.

[3] = Protocol: Four vials were prepared and stored at 2-8° C. or […] according to Table B2. The samples were scheduled initially to pull for testing at 3 weeks and 6 weeks time points.
For appearance, each unopened vial was visually examined for color, clumping, and flowability.
Samples were prepared by pipetting 20 mL of 100% methanol into each vial and mixing well, with sonication and vortexing to fully dissolve the samples for HPLC analysis.
HPLC analysis was performed.

[4] = Dynamic vapor sorption (DVS), sorption/desorption 5% to 95% RH; assay type: physicochemical
Text: Dynamic vapor sorption data was collected on a Surface Measurement System DVS Intrinsic instrument. The samples were not dried prior to analysis. […] Data were not corrected for the initial moisture content of the sample.

[5] = remark: listed apart in the source
Protocol: The aqueous solvents were water, 5% dextrose, 0.9% sodium chloride, Fasted State Simulated Intestinal Fluid (FaSSIF), Fed State Simulated Intestinal Fluid (FeSSIF) and Fasted State Simulated Gastric Fluid (FaSSGF). The organic solvents were methanol, ethanol, isopropanol and acetonitrile.
These fluids were prepared per the instruction listed by Biorelevant (Biorelevant.com). Each buffer concentrate was diluted with water and mixed well. FaSSIF, FeSSIF, FaSSGF powder was added to each buffer and mixed to completely dissolve the powder. Buffers were stored at room temperature and used within 48 hours of preparation.
Aliquots of each solvent were added to each sample and vortexed for about one minute until excess solid remained. Samples were placed on shaker at room temperature with 210 motion per minute shaking.
After one day, samples were pulled and checked if excess solid was present. About 1.5 mL aliquot of each sample was centrifuged at 12000 rpm for 12 to 15 minutes. […] Aliquots of the top clear solution of each centrifuged sample in MeOH, EtOH, IPA and ACN were diluted with diluent (water:MeOH 95:5) and assayed by HPLC.
A linear standard curve was constructed using standards with concentration between 11 μg/mL to 1.5 mg/mL as free acid forcing the curve to origin. Solubilities are reported as mg/mL free acid 25HC3S. Detection limit (LOD) of the HPLC method was calculated as 0.0007 mg/mL.

[6] = Biorelevant drug release, USP Apparatus 2, 0-30 min FaSSGF then FaSSGF + double strength FaSSIF; assay type: physicochemical; conditions: at 90 minutes, biorelevant media
Protocol: Biorelevant media as used herein is a combination of 2 different media used at different times. The first is in FaSSGF which stands for Fasted-state simulated gastric fluid and is used for 30 minutes of drug release. Afterwards, drug release is measured with addition of double strength FaSSIF which is Fasted-state simulated intestinal fluid. A skilled artisan would understand that the double strength FaSSIF is added at 30 minutes.
As used herein, the biorelevant drug release was conducted using a USP Apparatus 2 with (1) 0-30 minutes in 450 mL FaSSGF; and (2) 30-90 minutes FaSSGF+double strength FaSSIF in a total of 900 mL of media with pH adjusted to 6.5; with a paddle speed of 75 rpm (0-75 minutes) and 250 rpm (75-90 minutes) and a vessel temperature of 37° C.

[7] = after jet milling
Protocol: Crystalline 25HC3S was placed in a JAM-2-2002 mill under nitrogen and milled. The materials were then placed into product containers. Jet milling was conducted at a feed rate of 300 g/hour, with a venturi pressure of 50 psi and mill pressure of 120 psi of nitrogen. The target specification was set to having a Dv (90) of less than 10 microns.

[8] = Clinical study: safety and tolerability of oral doses of 25HC3S; assay type: in vivo, healthy male and female subjects
Text: The secondary objective for both Parts 1 and 2 of the study was: • To provide information on the safety and tolerability of oral doses of 25HC3S in healthy subjects
The evaluation of safety parameters comprised analysis of adverse events, laboratory variables (hematology, clinical chemistry and urinalysis), vital signs, electrocardiograms (ECGs) and physical examination findings.

C[C@H](CCCC(C)(C)O)[C@H]1CC[C@H]2[C@@H]3CC=C4C[C@@H](OS(=O)(=O)[O-])CC[C@]4(C)[C@H]3CC[C@]12C.C[N+](C)(C)CCO [25HC3S choline, 25-hydroxy-3β-cholesten-5-en-3-sulfate (25HC3S) choline]
Scale of Flowability per USP<1174> (Flow Character) [1]: Very, very poor (>38) | Flow Property per USP<1174> Powder Flow [2]: Good (31-35) | % Impurities 25-HC (25-Hydroxy-Cholesterol) ([3]; 2-8° C., 3 wk): 0.2% | % Impurities SD (Sulfate Desmosterol) ([3]; 2-8° C., 3 wk): 0.4% | % Impurities Total ([3]; 2-8° C., 3 wk): 1.0% | Appearance ([3]; 2-8° C., 3 wk): White, free flowing powder with clumping | Assay ([3]; 2-8° C., 3 wk): 101.6 % w/w | % Impurities 25-HC (25-Hydroxy-Cholesterol) ([3]; 2-8° C., 5 wk): 0.2% | % Impurities SD (Sulfate Desmosterol) ([3]; 2-8° C., 5 wk): 0.3% | % Impurities Total ([3]; 2-8° C., 5 wk): 0.9% | Appearance ([3]; 2-8° C., 5 wk): White, free flowing powder with clumping | Assay ([3]; 2-8° C., 5 wk): 108.1 % w/w | % Impurities 25-HC (25-Hydroxy-Cholesterol) ([3]; 80° C., 3 wk): 0.4% | % Impurities SD (Sulfate Desmosterol) ([3]; 80° C., 3 wk): 0.4% | % Impurities Total ([3]; 80° C., 3 wk): 1.2% | % Recovery of 2-8° C./3 wk VS 80° C../3 wk ([3]; 80° C., 3 wk): 100.8% | Appearance ([3]; 80° C., 3 wk): White, free flowing powder with clumping | Assay ([3]; 80° C., 3 wk): 102.4 % w/w | % Impurities 25-HC (25-Hydroxy-Cholesterol) ([3]; 80° C., 5 wk): 0.2% | % Impurities SD (Sulfate Desmosterol) ([3]; 80° C., 5 wk): 0.8% | % Impurities Total ([3]; 80° C., 5 wk): 2.2% | % Recovery of 2-8º C./5 wk VS 80° C./5 wk ([3]; 80° C., 5 wk): 97.3% | Appearance ([3]; 80° C., 5 wk): White, free flowing powder with clumping | Assay ([3]; 80° C., 5 wk): 105.2 % w/w | weight loss on the return to 5% relative humidity ([4]; DVS desorption 95% to 5% RH): 0.5% | Solubility in 0.9% Sodium Chloride [5]: low solubility | Solubility in 5% Dextrose [5]: 0.093 mg/mL as Free Acid | Solubility in ACN [5]: 0.5 mg/mL as Free Acid | Solubility in EtOH [5]: 3.4 mg/mL as Free Acid | Solubility in IPA [5]: 0.6 mg/mL as Free Acid | Solubility in MeOH [5]: 17.5 mg/mL as Free Acid | Solubility in Water [5]: 0.107 mg/mL as Free Acid | drug release [6]: ~ 10%

C[C@H](CCCC(C)(C)O)[C@H]1CC[C@H]2[C@@H]3CC=C4C[C@@H](OS(=O)(=O)[O-])CC[C@]4(C)[C@H]3CC[C@]12C.C[N+](C)(C)CCO [Micronized 25HC3S choline]
composite Dv (90) [7]: 4 microns

C[C@H](CCCC(C)(C)O)[C@H]1CCC2C3CC=C4C[C@@H](OS(=O)(=O)O)CC[C@]4(C)C3CC[C@@]21C (stereo partly drawn) [Tablet 25HC3S, [(3S,10R,13R,17R)-17-[(1R)-5-hydroxy-1,5-dimethyl-hexyl]-10,13-dimethyl-2,3,4,7,8,9,11,12,14,15,16,17-dodecahydro-1H-cyclopenta[a]phenanthren-3-yl]sulfate]
subjects reporting TEAEs, overall ([8]; 16 subjects, all TEAEs mild, not related to IMP): 2 (12.5%) | serious or severe TEAEs or deaths ([8]; all regimens): No serious, severe treatment-emergent adverse events (TEAEs) or deaths were reported | tolerability ([8]; choline salt IR formulations up to 50 mg fed and fasted, sodium salt PiB and choline salt PiB 12.5 mg fasted): well tolerated | total number of TEAEs ([8]; overall): 4

C[C@H](CCCC(C)(C)O)[C@H]1CC[C@H]2[C@@H]3CC=C4C[C@@H](OS(=O)(=O)[O-])CC[C@]4(C)[C@H]3CC[C@]12C.[Na+] [crystalline 25HC3S sodium, Sodium [(3S,10R,13R,17R)-17-[(1R)-5-hydroxy-1,5-dimethyl-hexyl]-10,13-dimethyl-2,3,4,7,8,9,11,12,14,15,16,17-dodecahydro-1H-cyclopenta[a]phenanthren-3-yl]sulfate, reference compound]
water uptake (DVS isotherm, in words) ([4]; until about 95% relative humidity, batch containing Form I and Form II): significant water uptake
